Measurements published in patent publication US20060069132A1, “Azolecarboxamide herbicides” (priority 2004, published 2006).

Tests used:
velvetleaf = assay: Test A pre-/postemergence herbicide test; type: in vivo, Abutilon theophrasti
In short: (§1)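 Plants are held in greenhouse about ten days after treatment, then compared with untreated controls and scored 0 (no effect) to 100 (complete control). Preemergence dosing is a directed soil spray on sown sandy loam; postemergence dosing is spray to runoff at 2–10 cm height.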

soybean = assay: Test C pre-/postemergence herbicide test; type: in vivo, Glycine max
In short: (§2)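 Greenhouse-grown plants were evaluated visually 12 to 14 days after treatment, with 100 meaning complete control and 0 no effect. Application was preemergence, or postemergence at 2 to 18 cm.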

morningglory = assay: Test C pre-/postemergence herbicide test; type: in vivo, Ipomoea coccinea; parameters: key to Plant response rating, Morningglory: 0 = no effect, 100 = complete control
In short: as §2

lambsquarters = assay: Test C pre-/postemergence herbicide test; type: in vivo, Chenopodium album
In short: as §2

Surinam grass = assay: Test C pre-/postemergence herbicide test; type: in vivo, Urochloa decumbens
In short: as §2

giant foxtail = assay: Test A pre-/postemergence herbicide test; type: in vivo, Setaria faberi
In short: as §1

pigweed = assay: Test C pre-/postemergence herbicide test; type: in vivo, Amaranthus retroflexus
In short: as §2

corn = assay: Test C pre-/postemergence herbicide test; type: in vivo, Zea mays
In short: as §2

kochia = assay: Test C pre-/postemergence herbicide test; type: in vivo, Kochia scoparia
In short: as §2

[1] = tested on: smallflower umbrella sedge; assay: Test C flooded paddy test; type: in vivo, Cyperus difformis; conditions: for Plant response rating, Sedge, Umbrella: 500 g ai/ha, visual rating after 12 to 14 days
yellow nutsedge = assay: Test C pre-/postemergence herbicide test; type: in vivo, Cyperus esculentus
In short: as §2

woolly cupgrass = assay: Test C pre-/postemergence herbicide test; type: in vivo, Eriochloa villosa
In short: as §2

barnyardgrass = assay: Test C flooded paddy test; type: in vivo, Echinochloa crus-galli; conditions: for Plant response rating, Barnyardgrass: 500 g ai/ha, visual rating after 12 to 14 days
In short: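 Visual rating, 0 (no effect) to 100 (complete control), vs. controls at 12–14 d in greenhouse. Postemergence: 1–4-leaf plants, 2–18 cm. Paddy: flooded, barnyardgrass at 2-leaf stage.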

goosegrass = assay: Test C pre-/postemergence herbicide test; type: in vivo, Eleusine indica
In short: as §2

[2] = Postemergence, 250 g ai/ha, 0 to 100 scale, 0 no effect, 100 complete control
[3] = Postemergence, 1000 g ai/ha, 0 to 100 scale, 0 no effect, 100 complete control
[4] = Preemergence, 1000 g ai/ha, visual rating, 0 to 100 scale (0 no effect, 100 complete control)
[5] = preemergence, 250 g ai/ha, visual injury, 0 to 100 scale (0 no effect, 100 complete control)
[6] = 125 g ai/ha, scale 0 (no effect) to 100 (complete control), visual, 12 to 14 days, preemergence
[7] = 250 g ai/ha, scale 0 to 100 (0 no effect, 100 complete control), visual, 12 to 14 days, preemergence
[8] = 62 g ai/ha, scale 0 to 100 (0 no effect, 100 complete control)
[9] = 125 g ai/ha, scale 0 to 100 (0 no effect, 100 complete control)
[10] = 250 g ai/ha, scale of 0 to 100, 0 is no effect, 100 is complete control
[11] = scale 0 to 100 (0 no effect, 100 complete control)
[12] = Postemergence, 500 g ai/ha, 0 to 100 scale, 0 no effect, 100 complete control
[13] = Postemergence, 2000 g ai/ha, 0 to 100 scale, 0 no effect, 100 complete control
[14] = Preemergence, 2000 g ai/ha, visual rating, 0 to 100 scale (0 no effect, 100 complete control)
[15] = preemergence, 500 g ai/ha, visual injury, 0 to 100 scale (0 no effect, 100 complete control)
[16] = 62 g ai/ha, preemergence, scale 0 to 100
[17] = 250 g ai/ha, scale 0-100, preemergence
[18] = Preemergence, 500 g ai/ha, scale 0 to 100, 0 no effect, 100 complete control
[19] = 500 g ai/ha, scale 0 to 100 (0 no effect, 100 complete control), visual, 12 to 14 days, preemergence

SMILES: CCn1nc(C(C)(C)C)cc1C(=O)Nc1cccc(SC)c1 [Compound 131]
- Velvetleaf plant response rating (velvetleaf; [2]): 15
- Plant response rating, Velvetleaf (velvetleaf; [3]): 10
- Velvetleaf plant response rating (velvetleaf; [4]): 60
- Velvetleaf plant response rating (velvetleaf; [5]): 10
- Plant response rating (0 = no effect, 100 = complete control), Soybean (soybean; 62 g ai/ha, preemergence): 0
- Plant response rating, Soybean (soybean; [6]): 0
- Plant response rating (0 = no effect, 100 = complete control), Morningglory (morningglory; 62 g ai/ha, preemergence): 0
- Plant response rating, Morningglory (morningglory; [6]): 0
- Plant response rating (0 = no effect, 100 = complete control), Lambsquarters (lambsquarters; 62 g ai/ha, preemergence): 95
- Plant response rating, Lambsquarters (lambsquarters; [6]): 100
- Plant response rating (0 = no effect, 100 = complete control), Surinam Grass (Surinam grass; 62 g ai/ha, preemergence): 0
- Plant response rating, Surinam Grass (Surinam grass; [6]): 0
- Foxtail, Giant plant response rating (giant foxtail; [2]): 10
- Plant response rating, Foxtail, Giant (giant foxtail; [3]): 15
- Foxtail, Giant plant response rating (giant foxtail; [4]): 75
- Foxtail, Giant plant response rating (giant foxtail; [5]): 10
- Plant response rating (0 = no effect, 100 = complete control), Pigweed (pigweed; 62 g ai/ha, preemergence): 95
- Plant response rating, Pigweed (pigweed; [6]): 100
- Plant response rating (0 = no effect, 100 = complete control), Corn (corn; 62 g ai/ha, preemergence): 0
- Plant response rating, Corn (corn; [6]): 0
- Plant response rating, Corn (corn; [7]): 0
- Plant response rating (0 = no effect, 100 = complete control), Kochia (kochia; 62 g ai/ha, preemergence): 85
- Plant response rating, Kochia (kochia; [6]): 85
- Sedge, Umbrella plant response rating [1, 8]: 55
- Sedge, Umbrella plant response rating [1, 9]: 65
- Sedge, Umbrella plant response rating [1, 10]: 70
- Plant response rating, Sedge, Umbrella [1, 11]: 80
- Plant response rating, Nutsedge, Yellow (yellow nutsedge; 31 g ai/ha, scale 0 to 100, last section of Table C, preemergence): 0
- Plant response rating (0 = no effect, 100 = complete control), Nutsedge, Yellow (yellow nutsedge; 62 g ai/ha, preemergence): 0
- Plant response rating, Nutsedge, Yellow (yellow nutsedge; [6]): 0
- Plant response rating (0 = no effect, 100 = complete control), Cupgrass, Woolly (woolly cupgrass; 62 g ai/ha, preemergence): 0
- Plant response rating, Cupgrass, Woolly (woolly cupgrass; [6]): 0
- Plant response rating, Cupgrass, Woolly (woolly cupgrass; [7]): 15
- Barnyardgrass plant response rating (barnyardgrass; [8]): 0
- Barnyardgrass plant response rating (barnyardgrass; 125 g ai/ha, scale of 0 to 100, 0 is no effect, 100 is complete control): 0
- Barnyardgrass plant response rating (barnyardgrass; [10]): 10
- Plant response rating, Barnyardgrass (barnyardgrass; [11]): 30
- Plant response rating (0 = no effect, 100 = complete control), Goosegrass (goosegrass; 62 g ai/ha, preemergence): 15
- Plant response rating, Goosegrass (goosegrass; [6]): 65

SMILES: C=CCNC(=O)c1cccc(NC(=O)c2sc(C(C)(C)C)nc2CC)c1 [Compound 207]
- Velvetleaf plant response rating (velvetleaf; [12]): 20
- Plant response rating, Velvetleaf (velvetleaf; [13]): 25
- Velvetleaf plant response rating (velvetleaf; [14]): 100
- Velvetleaf plant response rating (velvetleaf; [15]): 30
- Plant response rating, Soybean (soybean; [16]): 0
- Plant response rating, Soybean (soybean; [6]): 0
- Plant response rating, Soybean (soybean; [17]): 0
- Soybean plant response rating (soybean; [18]): 0
- Plant response rating, Morningglory (morningglory; [16]): 0
- Plant response rating, Morningglory (morningglory; [6]): 0
- Plant response rating, Morningglory (morningglory; [17]): 0
- Morningglory plant response rating (morningglory; [18]): 0
- Plant response rating, Lambsquarters (lambsquarters; [16]): 90
- Plant response rating, Lambsquarters (lambsquarters; [6]): 95
- Plant response rating, Lambsquarters (lambsquarters; [17]): 95
- Lambsquarters plant response rating (lambsquarters; [18]): 95
- Plant response rating, Surinam Grass (Surinam grass; [16]): 0
- Plant response rating, Surinam Grass (Surinam grass; [6]): 0
- Plant response rating, Surinam Grass (Surinam grass; [17]): 0
- Surinam Grass plant response rating (Surinam grass; [18]): 10
- Foxtail, Giant plant response rating (giant foxtail; [12]): 10
- Plant response rating, Foxtail, Giant (giant foxtail; [13]): 50
- Foxtail, Giant plant response rating (giant foxtail; [14]): 90
- Foxtail, Giant plant response rating (giant foxtail; [15]): 75
- Plant response rating, Pigweed (pigweed; [16]): 100
- Plant response rating, Pigweed (pigweed; [6]): 100
- Plant response rating, Pigweed (pigweed; [17]): 100
- Pigweed plant response rating (pigweed; [18]): 100
- Plant response rating, Corn (corn; [16]): 0
- Plant response rating, Corn (corn; [6]): 0
- Plant response rating, Corn (corn; [17]): 5
- Corn plant response rating (corn; [18]): 20
- Plant response rating, Kochia (kochia; [16]): 90
- Plant response rating, Kochia (kochia; [6]): 90
- Plant response rating, Kochia (kochia; [17]): 90
- Kochia plant response rating (kochia; [18]): 95
- Sedge, Umbrella plant response rating [1, 8]: 70
- Sedge, Umbrella plant response rating [1, 9]: 75
- Sedge, Umbrella plant response rating [1, 10]: 75
- Plant response rating, Sedge, Umbrella [1, 11]: 90
- Plant response rating, Nutsedge, Yellow (yellow nutsedge; [16]): 0
- Plant response rating, Nutsedge, Yellow (yellow nutsedge; [6]): 0
- Plant response rating, Nutsedge, Yellow (yellow nutsedge; [17]): 20
- Nutsedge, Yellow plant response rating (yellow nutsedge; [18]): 20
- Plant response rating, Cupgrass, Woolly (woolly cupgrass; [16]): 0
- Plant response rating, Cupgrass, Woolly (woolly cupgrass; [6]): 0
- Plant response rating, Cupgrass, Woolly (woolly cupgrass; [17]): 5
- Cupgrass, Woolly plant response rating (woolly cupgrass; [18]): 40
- Barnyardgrass plant response rating (barnyardgrass; [8]): 45
- Barnyardgrass plant response rating (barnyardgrass; [9]): 65
- Barnyardgrass plant response rating (barnyardgrass; [10]): 75
- Plant response rating, Barnyardgrass (barnyardgrass; [11]): 85
- Plant response rating, Goosegrass (goosegrass; [16]): 10
- Plant response rating, Goosegrass (goosegrass; [6]): 60
- Plant response rating, Goosegrass (goosegrass; [17]): 80
- Goosegrass plant response rating (goosegrass; [18]): 100

SMILES: CCNC(=O)c1cccc(NC(=O)c2sc(C(C)(C)C)nc2CC)c1 [Compound 210]
- Velvetleaf plant response rating (velvetleaf; [12]): 40
- Plant response rating, Velvetleaf (velvetleaf; [13]): 65
- Velvetleaf plant response rating (velvetleaf; [14]): 95
- Velvetleaf plant response rating (velvetleaf; [15]): 70
- Plant response rating, Soybean (soybean; [16]): 0
- Plant response rating, Soybean (soybean; [6]): 0
- Plant response rating, Soybean (soybean; [17]): 0
- Plant response rating, Soybean (soybean; [19]): 0
- Plant response rating, Morningglory (morningglory; [16]): 0
- Plant response rating, Morningglory (morningglory; [6]): 0
- Plant response rating, Morningglory (morningglory; [17]): 5
- Plant response rating, Morningglory (morningglory; [19]): 10
- Plant response rating, Lambsquarters (lambsquarters; [16]): 100
- Plant response rating, Lambsquarters (lambsquarters; [6]): 100
- Plant response rating, Lambsquarters (lambsquarters; [17]): 100
- Plant response rating, Lambsquarters (lambsquarters; [19]): 100
- Plant response rating, Surinam Grass (Surinam grass; [16]): 0
- Plant response rating, Surinam Grass (Surinam grass; [6]): 5
- Plant response rating, Surinam Grass (Surinam grass; [17]): 10
- Plant response rating, Surinam Grass (Surinam grass; [19]): 50
- Foxtail, Giant plant response rating (giant foxtail; [12]): 40
- Plant response rating, Foxtail, Giant (giant foxtail; [13]): 75
- Foxtail, Giant plant response rating (giant foxtail; [14]): 100
- Foxtail, Giant plant response rating (giant foxtail; [15]): 100
- Plant response rating, Pigweed (pigweed; [16]): 100
- Plant response rating, Pigweed (pigweed; [6]): 100
- Plant response rating, Pigweed (pigweed; [17]): 100
- Plant response rating, Pigweed (pigweed; [19]): 100
- Plant response rating, Corn (corn; [16]): 0
- Plant response rating, Corn (corn; [6]): 10
- Plant response rating, Corn (corn; [17]): 20
- Plant response rating, Corn (corn; [19]): 40
- Plant response rating, Kochia (kochia; [16]): 0
- Plant response rating, Kochia (kochia; [6]): 90
- Plant response rating, Kochia (kochia; [17]): 90
- Plant response rating, Kochia (kochia; [19]): 95
- Sedge, Umbrella plant response rating [1, 8]: 75
- Sedge, Umbrella plant response rating [1, 9]: 80
- Sedge, Umbrella plant response rating [1, 10]: 85
- Plant response rating, Sedge, Umbrella [1, 11]: 90
- Plant response rating, Nutsedge, Yellow (yellow nutsedge; [16]): 0
- Plant response rating, Nutsedge, Yellow (yellow nutsedge; [6]): 0
- Plant response rating, Nutsedge, Yellow (yellow nutsedge; [17]): 5
- Plant response rating, Nutsedge, Yellow (yellow nutsedge; [19]): 30
- Plant response rating, Cupgrass, Woolly (woolly cupgrass; [16]): 0
- Plant response rating, Cupgrass, Woolly (woolly cupgrass; [6]): 0
- Plant response rating, Cupgrass, Woolly (woolly cupgrass; [17]): 5
- Plant response rating, Cupgrass, Woolly (woolly cupgrass; [19]): 10
- Barnyardgrass plant response rating (barnyardgrass; [8]): 50
- Barnyardgrass plant response rating (barnyardgrass; [9]): 70
- Barnyardgrass plant response rating (barnyardgrass; [10]): 85
- Plant response rating, Barnyardgrass (barnyardgrass; [11]): 85
- Plant response rating, Goosegrass (goosegrass; [16]): 50
- Plant response rating, Goosegrass (goosegrass; [6]): 80
- Plant response rating, Goosegrass (goosegrass; [17]): 95
- Plant response rating, Goosegrass (goosegrass; [19]): 95
